From PMC8586700 (Frontiers in Pharmacology, 2021)
Like-named read-outs stand apart in the source and are kept apart here.

Assays:
[1] = Stability experiment in plasma and brain homogenate samples; type: in vitro ADME, SD rats; conditions: for Recoveries after being kept at room temperature for 12 h: plasma samples
Experimental: Three blank samples of plasma and brain homogenate of SD rats were added into the mixed standard solution. The stability experiment included placing at room temperature for 12 h, repeatedly freeze-thaw for three times and frozen for 15 days.

[2] = Repeated administration, drug concentrations of plasma and brain; type: in vivo, SD rats; conditions: for Detection in brain tissue: after repeated administration; for Mean concentrations±sd in brain after multiple doses: brain homogenate; for Effect on plasma concentration of DHC: repeated administration with CUR
Experimental: (§1) Plasma or brain homogenate of SD rats was taken 50 μL, internal standard solution of 50 μL and protein precipitator of 150 μL were added. After eddy oscillation for 3 min, supernatant was separated by centrifugation.
The concentration of drugs in plasma and brain homogenate after repeated administration was determined according to the same grouping and administration method. The loading dose of 200 mg kg^−1 was given for the first time and half doses for four consecutive days.
(§2) Plasma was collected by centrifugation of blood at 3000 RPM for 10min, and stored at -80 °C. Brain tissue of SD rat was dissected, weighed and added with normal saline at a volume of 2 ml g^−1. After homogenating brain tissue for 3 min by a homogenizer at 14,000 RPM, the supernatant was collected after centrifugation at 12,000 RPM for 10 min.

[3] = Solubility in solvents and vehicles; type: physicochemical
Text: DMSO is a universal organic solvent that is mutually soluble with most solvents and has a protective effect on red blood cells, platelets, bone marrow and various tissue cells during cryopreservation ([Willson et al., 1965]).

[4] = set-up: method as in Yang et al., 2007; conditions: ref Yang et al., 2007; cited from earlier work
[5] = test system: rats; set-up: method as in Willson et al., 1965; conditions: intragastric administration, ref Willson et al., 1965; cited from earlier work
[6] = Pharmacokinetic experiment, single intragastric administration, plasma by HPLC-UV; type: in vivo, SD rats; conditions: for concentration at 40 min / concentration at 60 min / concentration at 90 min / concentration at 150 min / concentration at 210 min: SD (Sprague-Dawley); for concentration at 40 min / concentration at 60 min / concentration at 90 min / concentration at 150 min / concentration at 210 min / concentration at 20 min / concentration at 270 min / concentration at 330 min / AUC / Cmax / half-life / Tmax: rat, plasma, po; for concentration at 20 min / concentration at 270 min / concentration at 330 min: SD; for AUC / Cmax / half-life / Tmax: Sprague-Dawley, 150 mg/kg, PIP or ILE 150 mg kg^−1 oral together with CUR 200 mg kg^−1; for AUC: read-out: AUC(0-tn) (converted); for Cmax: read-out: Cmax; for half-life: read-out: T1/2(el); for Tmax: read-out: Tmax (converted); for Effect of combined administration with CUR on plasma concentration of DHC: single administration, drug-time curve
Experimental: An Agilent 1200 HPLC system was used. […] The flow rate was set at 1 ml min^−1 and detection wavelength was 420, 340 and 323 nm. Injection volume was 5 μL. The column temperature was set at 30°C.
as §1
Blood samples were collected from tail vein at 20 min, 40 min, 1, 1.5, 2.5, 3.5, 4.5, and 5.5 h after intragastric administration.
as §2

[7] = ILE compared with PIP at the same dose
[8] = Mean concentrations ±sd, ILE, Group C (CUR 200 mg kg^−1 and ILE 150 mg kg^−1 oral)
[9] = Group B (CUR 200 mg kg^−1 and PIP 150 mg kg^−1 oral), read-out: Mean concentrations ±sd, PIP

Row | Recoveries after repeated freezing-thawing for three times ([1]; brain homogenate) | Recoveries after repeated freezing-thawing for three times ([1]; plasma) | Recoveries after being kept at room temperature for 12 h [1] | Detection in brain tissue [2] | Solubility in DMSO [3] | AUC [6] [ng·h/mL] | Cmax [6] [ng/mL] | half-life [6] [h] | Tmax [6] [h] | Mean concentrations±sd in brain after multiple doses [2] [ng/mL] | Structure (SMILES) | Effect of combined administration with CUR on plasma concentration of DHC [6] | Effect on plasma concentration of DHC [2] | other results
1 | over 100% | over 100% | less than 30% | could not be detected | well dissolved | – | – | – | – | – | COc1cc(/C=C/C(=O)CC(=O)/C=C/c2ccc(O)c(OC)c2)ccc1O [CUR, Curcumin] | – | – | recovery at 12 h ([1]; SD, rat, brain homogenate samples, read-out: Recovery after 12 h placement at room temperature): < 15%; Solubility in EtOH and glycerin [3]: slightly soluble; Solubility in water and various plant extracted oils [3]: insoluble; Oral bioavailability [4]: 1%
2 | – | – | – | – | – | – | – | – | – | – | C[S+](C)[O-] [DMSO, dimethyl sulfoxide] | – | – | LD50 [5]: 28300 mg/kg; Adverse reactions in the experimental animals ([2]; DMSO as solvent of intragastric administration for five consecutive days, SD rats): no adverse reactions occurred
3 | over 100% | over 100% | – | could be detected | well dissolved | 15400 | 5500 ± 2000 | 1.67 ± 0.287 | 3.07 | 1600 ± 200 | O=C(/C=C/c1ccc2c(c1)OCO2)N1CCCCC1 [ILE, Ilepcimide, reference compound] | could increase plasma concentration of DHC | could both increase the plasma concentration of DHC | AUC(0-tn) increased by [6, 7]: 32.1%; T1/2 decreased by [6, 7]: 40.2%; Tmax increased by [6, 7]: 1.7 times; concentration at 40 min [6, 8]: 1600 ± 100 ng/mL; concentration at 60 min [6, 8]: 2000 ± 500 ng/mL; concentration at 90 min [6, 8]: 2800 ± 900 ng/mL; concentration at 150 min [6, 8]: 5500 ± 1900 ng/mL; concentration at 210 min [6, 8]: 3400 ± 500 ng/mL; concentration at 20 min [6, 8]: 1300 ± 800 ng/mL; concentration at 270 min [6, 8]: 2200 ± 400 ng/mL; concentration at 330 min [6, 8]: 1200 ± 800 ng/mL
4 | over 100% | over 100% | lower than 75% | could be detected | well dissolved | 11700 | 4200 ± 700 | 2.79 ± 0.59 | 1.13 | 2100 ± 100 | O=C(/C=C/C=C/c1ccc2c(c1)OCO2)N1CCCCC1 [PIP, Piperine, reference compound] | no obvious effect | could both increase the plasma concentration of DHC | Recovery after 12 h placement at room temperature ([1]; brain homogenate samples): only showed slight decrease; concentration at 40 min [6, 9]: 2100 ± 700 ng/mL; concentration at 60 min [6, 9]: 4200 ± 700 ng/mL; concentration at 90 min [6, 9]: 2600 ± 500 ng/mL; concentration at 150 min [6, 9]: 2400 ± 900 ng/mL; concentration at 210 min [6, 9]: 2200 ± 500 ng/mL; concentration at 20 min [6, 9]: 1400 ± 400 ng/mL; concentration at 270 min [6, 9]: 1700 ± 400 ng/mL; concentration at 330 min [6, 9]: 1400 ± 200 ng/mL; Mean concentrations±sd, PIP in plasma after multiple doses ([2]; Group II: CUR and PIP): 2400 ± 500 ng/mL
